pEC50: −log10 of the molar value. Numbered stars: 1 amine (or outer) side, 2 acyl side, 3 side chain; on linkers, the order of the positions; unused ones are H or OH. Square brackets hold non-standard residues; d marks the D form. Side chains are listed from the residue outwards. Peptide text beside a SMILES is read from it. * marks the point of attachment. C18 diacid = O=C(O)CCCCCCCCCCCCCCCCC(=O)*; γGlu = O=C(O)[C@H](CCC(=O)[*:2])N[*:1]; AEEA = NCCOCCOCC(=O)O; Aib = CC(C)(N)C(=O)O
How the values were obtained:
human glucagon receptor = biological target: T1, human glucagon receptor (Homo sapiens, UniProt P47871); assay: Glucagon receptor potency, CRE luciferase reporter gene assay in BHK cells; assay type: cell-based; settings: BHK cells expressing human glucagon receptor, read-out: EC50 GlucR
T1 construct: expressed in transfected cells; host or cells: BHK cells (parent BHK570, CRE luciferase clone BHK/KZ10-20-48), clone pLJ6'-4-25
Method: The purpose of this example was to test the potency, of the glucagon derivatives of the invention, in vitro. The in vitro potency is the measure of human GLP-1 receptor or glucagon receptor activation, respectively, in a whole cell assay.
In vitro potency was determined by measuring the response of human GLP-1 or glucagon receptor, respectively, in a reporter gene assay. The assay was performed in a stably transfected BHK cell line that expresses either the human GLP-1 receptor or the human glucagon receptor and contains the DNA for the cAMP response element (CRE) coupled to a promoter and the gene for firefly luciferase (CRE luciferase). […] When assay incubation was completed, the luciferase substrate (luciferin) was added and the enzyme converted luciferin to oxyluciferin and produces bioluminescence. The luminescence was measured as the readout for the assay.
The cells used in this assay (clone pLJ6′-4-25) were BHK cells with BHK570 as a parent cell line expressing the CRE luciferase gene (clone BHK/KZ10-20-48) and were established by further transfection with the human glucagon receptor (clone pLJ6′ in pHZ-1 vector).
The cells were cultured at 5% CO2 in DMEM medium with 10% FBS, 1×GlutaMAX, 1 mg/ml G418, 240 nM MTX (methotrexate) and 1% pen/strep (penicillin/streptomycin). They were aliquoted and stored in liquid nitrogen. Before each assay, an aliquot was taken up and washed three times in PBS before being suspended at the desired concentration in assay medium. For 96-well plates the suspension was made to give a final concentration of 5×10EE3 cells/well.
The following chemicals were used in the assay: Pluronic F-68 (10%) (Gibco 2404), ovalbumin (Sigma A5503), DMEM w/o phenol red (Gibco 11880-028), 1 M Hepes (Gibco 15630), Glutamax 100× (Gibco 35050) and steadylite plus (PerkinElmer 6016757).
Assay Medium consisted of DMEM w/o phenol red, 10 mM Hepes, 1× GlutaMAX, 2% Ovalbumin and 0.2% Pluronic F-68.
Cell stocks were thawed in a 37° C. water bath. Cells were washed three times in PBS. The cells were counted and adjusted to 5×10EE3 cells/50 μl (1×10EE5 cells/ml) in Assay Medium. A 50 μl aliquot of cells was transferred to each well in the assay plate.
Stocks of the test compounds and reference compounds were diluted to a concentration of […] in Assay Medium. Compounds were diluted 10-fold to give the following concentrations: 2×10EE-6 M, 2×10EE-7 M, 2×10EE-8 M; 2×10EE-9 M, 2×10EE-10 M, 2×10EE-11 M, 2×10EE-12 M and 2×10EE-13 M. For each compound a blank assay medium control was also included.
A 50 μl aliquot of compound or blank was transferred from the dilution plate to the assay plate. Compounds were tested at the following final concentrations: 1×10EE-6 M, 1×10EE-7 M, 1×10EE-8 M; 1×10EE-9 M, 1×10EE-10 M, 1×10EE-11 M and 1×10EE-12 M and 1×10EE-13 M.
The assay plate was incubated for 3 h in a 5% CO2 incubator at 37° C. The assay plate was removed from the incubator and allowed to stand at room temperature for 15 min. A 100 μl aliquot of steadylite plus reagent was added to each well of the assay plate (reagent is light sensitive). Each assay plate was covered with aluminum foil to protect it from light and shaken for 30 min at room temperature. Each assay plate was read in a Perkin Elmer TopCount NXT instrument.
The data from the TopCount instrument was transferred to GraphPad Prism software. The software performed a non-linear regression (log(agonist) vs response-Variable slope (four parameter)). EC50 values were calculated by the software and reported in pM.

human GLP-1 receptor = biological target: T2, human GLP-1 receptor (Homo sapiens, UniProt P43220); assay: GLP-1 receptor potency, CRE luciferase reporter gene assay in BHK cells; assay type: cell-based; settings: BHK cells expressing human GLP-1 receptor, read-out: EC50 GLP-1R
T2 construct: expressed in transfected cells; host or cells: BHK cells (parent BHKTS13), clone FCW467-12A/KZ10-1, with CRE luciferase
Procedure, shortened: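 BHK cells stably expressing human GLP-1 receptor with CRE-luciferase reporter, 5×10EE3 cells/well in phenol red-free DMEM with 10 mM Hepes, 2% ovalbumin, 0.2% Pluronic F-68. Compounds at final 1×10EE-6 to 1×10EE-13 M, 3 h at 37° C; steadylite luminescence; EC50 by four-parameter fit, in pM.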

[1] = Thioflavin T (ThT) fibrillation assay for physical stability; assay type: physicochemical; settings: 250 μM in 10 mM HEPES buffer, pH 7.5, 37° C., shaking 960 rpm
Procedure, shortened: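 Peptide at 250 μM in 10 mM HEPES pH 7.5 with 1 μM ThT, at 37° C with 960 rpm orbital shaking. Fluorescence (ex 444/em 485 nm) read every 20 min after 10 min pre-incubation; sigmoidal fit gives lag time (t0−2τ) and kapp (1/τ). Recovery is RP-HPLC peptide in the centrifuged, 0.22 μm-filtered supernatant as % of initial.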

[2] = Chemical stability assessment by RP-UPLC; assay type: physicochemical; settings: 333 μM, 8 mM phosphate buffer pH 7.3, 37° C. vs 5° C.
Method: The purpose of this assay was to assess the chemical stability of the glucagon derivatives of the invention in aqueous solutions.
Chemical stability of glucagon derivatives or analogues was investigated by RP-UPLC separation and UV detection. Lyophilized samples were dissolved in a 8 mM Phosphate buffer pH 8.6, followed by adjustment to pH 7.3.using HCl to a final concentration of 333 μM. Samples were incubated for 14 days at 5° C. and 37° C. followed by RP-UPLC analysis. Purity was defined as the area percentage of the main peak in relation to the total area of all integrated peaks in each chromatogram. Purity loss after 14 days at 37° C. was determined as the difference in purity between the samples incubated at 5° C. and 37° C., divided by the purity of the sample after incubation for 14 days at 5° C.
RP-UPLC analysis was performed using a Waters BEH130 2.1 mm×150 mm, 1.7 μm column operated at 50° C. and a flow rate of 0.4 mL/min using a mobile phase system consisting of A: 0.05% TFA in MQ-water B: 0.05% TFA in Acetonitrile. UV-detection was performed at 215 nm. The typical gradient profile used for most of the samples is shown below.
For some individual derivatives or analogues eluting at substantially different retention times compared with the majority of derivatives or analogues, some adjustments to the gradient profile were made to better enable purity assessment comparison across samples. The data confirmed the improved chemical stability of the glucagon derivatives of this invention.

T1 sequence (P47871 26-477): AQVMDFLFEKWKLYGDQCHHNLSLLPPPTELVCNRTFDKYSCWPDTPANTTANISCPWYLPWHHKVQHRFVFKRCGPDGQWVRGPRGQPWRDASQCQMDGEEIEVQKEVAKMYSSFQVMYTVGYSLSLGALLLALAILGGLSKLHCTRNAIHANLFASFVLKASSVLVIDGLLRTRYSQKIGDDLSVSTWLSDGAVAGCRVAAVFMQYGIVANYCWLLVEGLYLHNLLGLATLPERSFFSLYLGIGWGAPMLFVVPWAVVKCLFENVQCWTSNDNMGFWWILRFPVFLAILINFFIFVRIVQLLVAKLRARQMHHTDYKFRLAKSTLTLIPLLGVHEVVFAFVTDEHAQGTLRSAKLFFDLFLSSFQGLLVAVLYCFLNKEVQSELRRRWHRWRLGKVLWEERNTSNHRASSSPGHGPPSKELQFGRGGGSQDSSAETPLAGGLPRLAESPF
T2 sequence (P43220 24-463): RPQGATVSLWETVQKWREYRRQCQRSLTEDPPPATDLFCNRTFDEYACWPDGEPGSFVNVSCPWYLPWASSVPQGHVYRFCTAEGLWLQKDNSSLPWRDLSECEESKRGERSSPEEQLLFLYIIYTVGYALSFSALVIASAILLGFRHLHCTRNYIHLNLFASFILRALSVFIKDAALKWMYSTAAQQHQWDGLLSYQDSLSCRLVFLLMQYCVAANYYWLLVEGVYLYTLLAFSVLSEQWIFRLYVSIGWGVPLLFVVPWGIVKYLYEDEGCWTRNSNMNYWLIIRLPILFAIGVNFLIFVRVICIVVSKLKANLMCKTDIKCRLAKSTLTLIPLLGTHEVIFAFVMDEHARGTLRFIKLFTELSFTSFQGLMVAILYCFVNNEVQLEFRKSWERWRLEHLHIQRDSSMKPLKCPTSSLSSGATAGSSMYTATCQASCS

CC(C)C[C@H](NC(=O)[C@H](Cc1ccc(O)cc1)NC(=O)[C@H](CCCCN)NC(=O)[C@H](CO)NC(=O)[C@H](CC(C)C)NC(=O)[C@H](CC(=O)O)NC(=O)[C@H](CO)NC(=O)[C@@H](NC(=O)[C@H](Cc1ccccc1)NC(=O)[C@@H](NC(=O)CNC(=O)[C@H](CCC(N)=O)NC(=O)C(C)(C)NC(=O)[C@@H](N)Cc1c[nH]cn1)[C@@H](C)O)[C@@H](C)O)C(=O)N[C@@H](CC(=O)O)C(=O)N[C@@H](CCCCNC(=O)CC[C@H](NC(=O)CC[C@H](NC(=O)COCCOCCNC(=O)COCCOCCNC(=O)CC[C@H](NC(=O)CCCCCCCCCCCCCCCCC(=O)O)C(=O)O)C(=O)O)C(=O)O)C(=O)N[C@@H](CCCNC(=N)N)C(=O)N[C@@H](CCCNC(=N)N)C(=O)N[C@@H](C)C(=O)N[C@@H](CCCNC(=N)N)C(=O)N[C@@H](CC(=O)O)C(=O)N[C@@H](Cc1ccccc1)C(=O)N[C@H](C(=O)N[C@@H](CCC(N)=O)C(=O)N[C@@H](Cc1c[nH]c2ccccc12)C(=O)N[C@@H](CC(C)C)C(=O)N[C@@H](CC(C)C)C(=O)N[C@@H](CO)C(=O)N[C@H](C(N)=O)[C@@H](C)O)C(C)C [Example 1, N^ε16-[(4S)-4-carboxy-4-[[(4S)-4-carboxy-4-[[2-[2-[2-[[2-[2-[2-[[(4S)-4-carboxy-4-(17-carboxyheptadecanoylamino)butanoyl]amino]ethoxy]ethoxy]acetyl]amino]ethoxy]ethoxy]acetyl]amino]butanoyl]amino]butanoyl]-[Aib2,Leu10,Lys16,Arg20,Leu27,Ser28]-Glucagon amide] (H-H[Aib]QGTFTSDLSKYLDK([γGlu-γGlu-AEEA-AEEA-γGlu-C18 diacid])RRARDFVQWLLST-NH2; N-terminus assumed)
pEC50 (human glucagon receptor): 10.27
pEC50 (human GLP-1 receptor): 11.10

CC(C)C[C@H](NC(=O)[C@H](Cc1ccc(O)cc1)NC(=O)[C@H](CCCCN)NC(=O)[C@H](CO)NC(=O)[C@H](CC(C)C)NC(=O)[C@H](CC(=O)O)NC(=O)[C@H](CO)NC(=O)[C@@H](NC(=O)[C@H](Cc1ccccc1)NC(=O)[C@@H](NC(=O)CNC(=O)[C@H](CCC(N)=O)NC(=O)C(C)(C)NC(=O)[C@@H](N)Cc1c[nH]cn1)[C@@H](C)O)[C@@H](C)O)C(=O)N[C@@H](CC(=O)O)C(=O)N[C@@H](CO)C(=O)N[C@@H](CCCNC(=N)N)C(=O)N[C@@H](CCCNC(=N)N)C(=O)N[C@@H](C)C(=O)N[C@@H](CCCNC(=N)N)C(=O)N[C@@H](CC(=O)O)C(=O)N[C@@H](Cc1ccccc1)C(=O)N[C@H](C(=O)N[C@@H](CCC(N)=O)C(=O)N[C@@H](Cc1c[nH]c2ccccc12)C(=O)N[C@@H](CC(C)C)C(=O)N[C@@H](CC(C)C)C(=O)N[C@@H](CCCCNC(=O)CC[C@H](NC(=O)CC[C@H](NC(=O)COCCOCCNC(=O)COCCOCCNC(=O)CC[C@H](NC(=O)CCCCCCCCCCCCCCCCC(=O)O)C(=O)O)C(=O)O)C(=O)O)C(=O)N[C@H](C(N)=O)[C@@H](C)O)C(C)C [Example 4, N^ε28-[(4S)-4-carboxy-4-[[(4S)-4-carboxy-4-[[2-[2-[2-[[2-[2-[2-[[(4S)-4-carboxy-4-(17-carboxyheptadecanoylamino)butanoyl]amino]ethoxy]ethoxy]acetyl]amino]ethoxy]ethoxy]acetyl]amino]butanoyl]amino]butanoyl]-[Aib2,Leu10,Arg20,Leu27,Lys28]-Glucagon amide] (H-H[Aib]QGTFTSDLSKYLDSRRARDFVQWLLK([γGlu-γGlu-AEEA-AEEA-γGlu-C18 diacid])T-NH2; N-terminus assumed)
pEC50 (human glucagon receptor): 10.80
pEC50 (human GLP-1 receptor): 11.40

CC(C)C[C@H](NC(=O)[C@H](Cc1ccc(O)cc1)NC(=O)[C@H](CCCCN)NC(=O)[C@H](CO)NC(=O)[C@H](CC(C)C)NC(=O)[C@H](CC(=O)O)NC(=O)[C@H](CO)NC(=O)[C@@H](NC(=O)[C@H](Cc1ccccc1)NC(=O)[C@@H](NC(=O)CNC(=O)[C@H](CCC(N)=O)NC(=O)C(C)(C)NC(=O)[C@@H](N)Cc1c[nH]cn1)[C@@H](C)O)[C@@H](C)O)C(=O)N[C@@H](CCC(=O)O)C(=O)N[C@@H](CO)C(=O)N[C@@H](CCCCN)C(=O)N[C@@H](CCCNC(=N)N)C(=O)N[C@@H](C)C(=O)N[C@@H](CCCNC(=N)N)C(=O)N[C@@H](CCC(=O)O)C(=O)N[C@@H](Cc1ccccc1)C(=O)N[C@H](C(=O)N[C@@H](CCC(N)=O)C(=O)N[C@@H](Cc1c[nH]c2ccccc12)C(=O)N[C@@H](CC(C)C)C(=O)N[C@@H](CC(C)C)C(=O)N[C@@H](CCCCNC(=O)CC[C@H](NC(=O)CC[C@H](NC(=O)COCCOCCNC(=O)COCCOCCNC(=O)CC[C@H](NC(=O)CCCCCCCCCCCCCCCCC(=O)O)C(=O)O)C(=O)O)C(=O)O)C(=O)N[C@H](C(N)=O)[C@@H](C)O)C(C)C [Example 22, N^ε29-[(4S)-4-carboxy-4-[[(4S)-4-carboxy-4-[[2-[2-[2-[[2-[2-[2-[[(4S)-4-carboxy-4-(17-carboxyheptadecanoylamino)butanoyl]amino]ethoxy]ethoxy]acetyl]amino]ethoxy]ethoxy]acetyl]amino]butanoyl]amino]butanoyl]-[Aib2,Leu10,Glu15,Lys17,Arg20,Glu21,Leu27,Lys28]-Glucagon amide] (H-H[Aib]QGTFTSDLSKYLESKRAREFVQWLLK([γGlu-γGlu-AEEA-AEEA-γGlu-C18 diacid])T-NH2; N-terminus assumed)
THT assay Lag time (Ex. 76) [1]: 45 h
Purity loss; 14 days at 37° C. [2]: 1%
